Assays:
Type in all cases: functional
SNB-19 = experiment: Growth inhibition of human SNB19 cells assessed as cell growth at 10^-5 M incubated for 48 hrs by sulforhodamine B assay relative to control; details: SNB-19, 48 h, read-out: Activity
NCI-H322M = experiment: Growth inhibition of human NCI-H322M cells assessed as cell growth at 10^-6 M incubated for 48 hrs by sulforhodamine B assay relative to control; details: read-out: Activity
HCT-15 [1] = experiment: Growth inhibition of human HCT15 cells assessed as cell growth at 10^-4 M incubated for 48 hrs by sulforhodamine B assay relative to control; details: HCT-15, 48 h, read-out: Activity
UO-31 = experiment: Growth inhibition of human UO31 cells assessed as cell growth at 10^-7 M incubated for 48 hrs by sulforhodamine B assay relative to control; details: UO-31, 48 h, read-out: Activity
M14 = experiment: Growth inhibition of human M14 cells assessed as cell growth at 10^-6 M incubated for 48 hrs by sulforhodamine B assay relative to control; details: M14, 48 h, read-out: Activity
OVCAR-8 = experiment: Growth inhibition of human OVCAR8 cells assessed as cell growth at 10^-4 M incubated for 48 hrs by sulforhodamine B assay relative to control; details: OVCAR-8, 48 h, read-out: Activity
TK-10 [2] = experiment: Growth inhibition of human TK10 cells assessed as cell growth at 10^-4 M incubated for 48 hrs by sulforhodamine B assay relative to control; details: TK-10, 48 h, read-out: Activity
MCF7 = experiment: Growth inhibition of human MCF7 cells assessed as cell growth at 10^-8 M incubated for 48 hrs by sulforhodamine B assay relative to control; details: MCF7, 48 h, read-out: Activity
IGROV-1 = experiment: Growth inhibition of human IGROV1 cells assessed as cell growth at 10^-5 M incubated for 48 hrs by sulforhodamine B assay relative to control; details: IGROV-1, 48 h, read-out: Activity
K562 = experiment: Growth inhibition of human K562 cells assessed as cell growth at 10^-4 M incubated for 48 hrs by sulforhodamine B assay relative to control; details: K562, 48 h, read-out: Activity
BT-549 = experiment: Growth inhibition of human BT549 cells assessed as cell growth at 10^-4 M incubated for 48 hrs by sulforhodamine B assay relative to control; details: BT-549, 48 h, read-out: Activity
CAKI-1 [3] = experiment: Growth inhibition of human Caki1 cells assessed as cell growth at 10^-8 M incubated for 48 hrs by sulforhodamine B assay relative to control; details: CAKI-1, 48 h, read-out: Activity
HOP-92 = experiment: Growth inhibition of human HOP92 cells assessed as cell growth at 10^-4 M incubated for 48 hrs by sulforhodamine B assay relative to control; details: HOP-92, 48 h, read-out: Activity
COLO 205 = experiment: Growth inhibition of human COLO205 cells assessed as cell growth at 10^-7 M incubated for 48 hrs by sulforhodamine B assay relative to control; details: COLO 205, 48 h, read-out: Activity
Malme-3M = experiment: Growth inhibition of human MALME-3M cells assessed as cell growth at 10^-6 M incubated for 48 hrs by sulforhodamine B assay relative to control; details: read-out: Activity
HT-29 = experiment: Growth inhibition of human HT-29 cells assessed as cell growth at 10^-6 M incubated for 48 hrs by sulforhodamine B assay relative to control; details: HT-29, 48 h, read-out: Activity
SF-539 = experiment: Growth inhibition of human SF539 cells assessed as cell growth at 10^-5 M incubated for 48 hrs by sulforhodamine B assay relative to control; details: SF-539, 48 h, read-out: Activity
PC-3 [4] = experiment: Growth inhibition of human PC3 cells assessed as cell growth at 10^-7 M incubated for 48 hrs by sulforhodamine B assay relative to control; details: PC-3, 48 h, read-out: Activity
HCT-116 [5] = experiment: Growth inhibition of human HCT116 cells assessed as cell growth at 10^-7 M incubated for 48 hrs by sulforhodamine B assay relative to control; details: HCT-116, 48 h, read-out: Activity
SK-MEL-28 [6] = experiment: Growth inhibition of human SK-MEL-28 cells assessed as cell growth at 10^-8 M incubated for 48 hrs by sulforhodamine B assay relative to control; details: SK-MEL-28, 48 h, read-out: Activity
OVCAR-3 = experiment: Growth inhibition of human OVCAR3 cells assessed as cell growth at 10^-5 M incubated for 48 hrs by sulforhodamine B assay relative to control; details: OVCAR-3, 48 h, read-out: Activity
HCT-15 [7] = experiment: Growth inhibition of human HCT15 cells assessed as cell growth at 10^-6 M incubated for 48 hrs by sulforhodamine B assay relative to control; details: HCT-15, 48 h, read-out: Activity
MOLT-4 = experiment: Growth inhibition of human MOLT4 cells assessed as cell growth at 10^-4 M incubated for 48 hrs by sulforhodamine B assay relative to control; details: MOLT-4, 48 h, read-out: Activity
SW-620 = experiment: Growth inhibition of human SW620 cells assessed as cell growth at 10^-5 M incubated for 48 hrs by sulforhodamine B assay relative to control; details: SW-620, 48 h, read-out: Activity
UACC-257 = experiment: Growth inhibition of human UACC257 cells assessed as cell growth at 10^-4 M incubated for 48 hrs by sulforhodamine B assay relative to control; details: UACC-257, 48 h, read-out: Activity
RXF 393 = experiment: Growth inhibition of human RXF393 cells assessed as cell growth at 10^-6 M incubated for 48 hrs by sulforhodamine B assay relative to control; details: RXF 393, 48 h, read-out: Activity
TK-10 [8] = experiment: Growth inhibition of human TK10 cells assessed as cell growth at 10^-6 M incubated for 48 hrs by sulforhodamine B assay relative to control; details: TK-10, 48 h, read-out: Activity
CAKI-1 [9] = experiment: Growth inhibition of human Caki1 cells assessed as cell growth at 10^-5 M incubated for 48 hrs by sulforhodamine B assay relative to control; details: CAKI-1, 48 h, read-out: Activity
CAKI-1 [10] = experiment: Growth inhibition of human Caki1 cells assessed as cell growth at 10^-4 M incubated for 48 hrs by sulforhodamine B assay relative to control; details: CAKI-1, 48 h, read-out: Activity
SK-MEL-28 [11] = experiment: Growth inhibition of human SK-MEL-28 cells assessed as cell growth at 10^-4 M incubated for 48 hrs by sulforhodamine B assay relative to control; details: SK-MEL-28, 48 h, read-out: Activity
SF-295 = experiment: Growth inhibition of human SF295 cells assessed as cell growth at 10^-8 M incubated for 48 hrs by sulforhodamine B assay relative to control; details: SF-295, 48 h, read-out: Activity
HCT-116 [12] = experiment: Growth inhibition of human HCT116 cells assessed as cell growth at 10^-5 M incubated for 48 hrs by sulforhodamine B assay relative to control; details: HCT-116, 48 h, read-out: Activity
ACHN = experiment: Growth inhibition of human ACHN cells assessed as cell growth at 10^-7 M incubated for 48 hrs by sulforhodamine B assay relative to control; details: read-out: Activity
PC-3 [13] = experiment: Growth inhibition of human PC3 cells assessed as cell growth at 10^-4 M incubated for 48 hrs by sulforhodamine B assay relative to control; details: PC-3, 48 h, read-out: Activity

Work on `CCCCOc1nc2ccccc2cc1C1CNC(=O)c2ccccc2N1` (centres undefined) yielded a growth at 10 µM (SNB-19) of 38%, a growth at 1 µM (NCI-H322M) of 86% and a growth at 100 µM (HCT-15 [1]) of -74%. The growth at 0.1 µM (UO-31) was 86%, the growth at 1 µM (M14) was 61% and the growth at 100 µM (OVCAR-8) was -45%. The growth at 100 µM (TK-10 [2]) was -62%, the growth at 0.01 µM (MCF7) was 88% and the growth at 10 µM (IGROV-1) was 31%. It also gave a growth at 100 µM (K562) of -25%, a growth at 100 µM (BT-549) of -25% and a growth at 0.01 µM (CAKI-1 [3]) of 83%. For the same molecule, the growth at 100 µM (HOP-92) was -38%, the growth at 0.1 µM (COLO 205) was 95% and the growth at 1 µM (Malme-3M) was 62%. For the same molecule, the growth at 1 µM (HT-29) was 98%, the growth at 10 µM (SF-539) was -12% and the growth at 0.1 µM (PC-3 [4]) was 97%. For the same molecule, the growth at 0.1 µM (HCT-116 [5]) was 101%, the growth at 0.01 µM (SK-MEL-28 [6]) was 103% and the growth at 10 µM (OVCAR-3) was -53%. The growth at 1 µM (HCT-15 [7]) was 69%, the growth at 100 µM (MOLT-4) was -37% and the growth at 10 µM (SW-620) was 18%. For the same molecule, the growth at 100 µM (UACC-257) was 6%, the growth at 1 µM (RXF 393) was 80% and the growth at 1 µM (TK-10 [8]) was 92%. It also gave a growth at 10 µM (CAKI-1 [9]) of 25%, a growth at 100 µM (CAKI-1 [10]) of -22% and a growth at 100 µM (SK-MEL-28 [11]) of -57%. For the same molecule, the growth at 0.01 µM (SF-295) was 84%, the growth at 10 µM (HCT-116 [12]) was -19% and the growth at 0.1 µM (ACHN) was 98%. It also gave a growth at 100 µM (PC-3 [13]) of -63%.

From ChEMBL document CHEMBL4138146, “A Schmidt rearrangement-mediated synthesis of novel tetrahydro-benzo[1,4]diazepin-5-ones as potential anticancer and antiprotozoal agents” (Eur J Med Chem, 2017)
